Laboratory results from patent US7345037B2, “Nitrosated and nitrosylated compounds and compositions and their use for treating respiratory disorders” (Nitromed, Inc., priority 1996, dated 2008).

Assays:
[1] = test system: acute bronchoconstriction and late bronchial obstruction after inhalation challenge with Ascaris Suum; test: Ascaris suum-induced immediate and late bronchial response (mean lung resistance sR1) in allergic conscious sheep; assay type: in vivo; conditions: for protection of the immediate response / protection of the peak late response: 500 μg aerosolized 30 minutes prior to ascaris suum challenge, referenced to historical controls, n=3
Text: (§1) The measurement of biological activity in a pulmonary model of allergic asthma and lung inflammation was undertaken in adult conscious sheep. The methodology was essentially as described by W. M. Abraham et al. (Bull. Eur. Physiopathol. Respir., 22, 387 (1986)). Adult sheep with a natural cutaneous reaction to Ascaris Suum extract and who respond to inhalation challenge with Ascaris Suum with both an acute bronchoconstriction and a late bronchial obstruction were used in the study.
Unsedated sheep were intubated and measurement of airway mechanics were computed and recorded on a digital computer utilizing inputs of transpulmonary pressure and tracheal airflow recordings. Each animal was exposed to an aerosol of ascaris suum, diluted to produce an immediate and significant increase in mean lung resistance (sR1) of approximately 600-700% above baseline. […] This second response is known as the late response. sR1 returned to baseline by 24 hours. Each animal was exposed to an aerosol of ascaris suum at a minimum of two week interval. […]
(§2) Each test drug was aerosolized to an animal 30 minutes prior to challenge with ascaris suum.

[2] = test system: airway responsiveness to aerosolized carbachol after exposure to ascaris suum; test: Airway responsiveness to aerosolized carbachol (PC150) before and after Ascaris suum challenge in allergic conscious sheep; assay type: in vivo; conditions: 500 μg aerosolized, PC150 of carbachol 24 hours prior to and 24 post ascaris suum exposure, closer to unity is better
Text: as §1
Airway responsiveness was measured by calculation of a PC150 value. The PC150 is the dose of aerosolized carbachol which produces a 150% increase in sR1 above baseline. The doses of carbachol were administered in an ascending dose-response fashion with each dose being administered for a 10 breath duration. The PC150 value was determined for each animal 24 hours prior to exposure to ascaris suum and again 24 post exposure. The difference in PC150 values represented a change in airway responsiveness. The closer the post challenge to prechallenge ratio to unity the better the effect of the particular compound.
as §2

Compound	protection of the immediate response [1] [%]	protection of the peak late response [1] [%]	protection against lung function changes due to aerosol challenge of ascaris suum ([1]; overall comparison with the parent steroid)	post challenge/prechallenge ratio of PC150 values (airway hyperresponsiveness) [2]
6α-Fluoro-11β-hydroxy-16α,17-((1-methylethylidene)bis(oxy))pregna-1,4-diene-3,20-dione-21-(3-methyl-3-nitrosothio)-butanoate [Example 1]	59±14	89±2	better protection	1.18±0.06
CC1(C)O[C@@H]2C[C@H]3[C@@H]4C[C@H](F)C5=CC(=O)C=C[C@]5(C)[C@H]4[C@@H](O)C[C@]3(C)[C@]2(C(=O)CO)O1 [6α-Fluoro-11β, 21-dihydroxy-16α, 17α-((1-methylethylidene)bis(oxy))pregna-1,4-diene-3,20-dione, reference compound]	16±21	83±7	–	0.98±0.10
